The values below come from patent US20040034052A1, “Tricyclic derivatives of indole with antiangiogenic activity” (priority 2003, published 2004).

pIC50: −log10 of the molar value. Where two headings read alike, the source gives them in different places. Bounds are passed on as bounds.

The subject of data set [1] is MCF-7 (human mammary carcinoma). The data set is described as follows: Sulforodamine B antiproliferative test, sensitive MCF-7 cells. It counts as cell-based. As to conditions: MCF7, MCF-7 sensitive, 24 hours incubation, survival after another 48 hours, read-out: IC50 +/− SD, antiproliferative activity vs sensitive cell, MCF-7. Here is the method:
(§1) For the cytotoxic activity, proliferation screening tests were used, with different tumour lines, such as MCF-7 (human mammary carcinoma), LoVo (human colon carcinoma), MES-SA (human uterine sarcoma), or K-562 (human chronic myeloid leukaemia).
(§2) The test used was the sulforodamine B test used for screening anticancer products at the National Cancer Institute (Skehan, 1990). The molecules at scalar concentrations over a range from 500 μM to 0.97 μM, were incubated in parallel with different human cell lines for 24 hours. After removing the products, cell survival was investigated after another 48 hours with the NCI test. The antiproliferative capacity of the compounds was quantified in terms of IC50±SD (concentration of the molecule that inhibits 50% of cell survival) processed using a curve fitting program (De Lean et al., 1978).

The subject of data set [2] is LoVo (human colon carcinoma). The data set is described as follows: Sulforodamine B antiproliferative test, sensitive LoVo cells. It counts as cell-based. To be noted: 24 hours incubation, survival after another 48 hours, read-out: IC50 +/− SD, antiproliferative activity vs sensitive cell, LoVo. As to the method: as §1, §2
Data set [3] deals with MCF-7 resistant cell (MCF-7/Dx, overexpressing P-glycoprotein, resistant to doxorubicin). The data set can be described thus: Antiproliferative activity vs resistant cells, MCF-7. As to conditions: Homo sapiens, MCF7; MCF-7 resistant (doxorubicin-resistant); read-out: IC50 +/− SD, antiproliferative activity vs resistent cell, MCF-7. It counts as cell-based. As to the method:
as §2
(§3) The cytotoxicity of the molecules on tumour lines resistant to chemosensitising activity was assessed on various tumour cell lines overexpressing P-glycoprotein and resistant to doxorubicin (100-fold) and cross-resistant to daunorubicin, actinomycin D, mitoxantrone, vincristine, vinblastine, taxol, colchicine, and etoposide. The cytotoxicity of the products was assessed using the same test adopted for the sensitive tumour cells.

Data set [4] deals with LoVo resistant cell (LoVo/Dx, overexpressing P-glycoprotein, resistant to doxorubicin). The data set can be described thus: Antiproliferative activity vs resistant cells, LoVo. As to conditions: Homo sapiens, read-out: IC50 +/− SD, antiproliferative activity vs resistent cell, LoVo. It counts as cell-based. As to the method: as §2, §3
The next data set concerns MCF-7 cells. The data set can be described thus: Cell cycle and apoptosis analysis (propidium iodide, FACS) on MCF-7 cells. It counts as cell-based, human. As to the method: The cell cycle and apoptosis analysis on a tumour line was done by incubating the products for 24 hours at a concentration equal to approximately the IC50 Values with MCF-7 cells. The molecules were removed and the cell cycle and apoptosis were assessed at different times (0, 24, 48 hours). The cells were stained with propidium iodide and analysed with a cytofluorimeter (FACS) ([…] fluorescence activated cell sorter) by means of an argon ion laser set at 488 nm for the excitation. To assess the percentage of cells in the various stages of the cycle, linear DNA histograms were analysed with a cell fit program distributed by the equipment manufacturer. For the analysis of apoptosis, a region was inserted below the G0/G1 peak of the control population and the data were analysed with software supplied by the company (Lysis II-C32).

The next data set relates to MCF-7/Dx line. The data set is described as follows: Potentiation of doxorubicin cytotoxicity (MDR ratio), MCF-7/Dx. To be noted: compound at 11 μM. It counts as cell-based, human. Here is the method:
as §3
(§4) Later, the products were assayed at a concentration lower than or equal to the one that inhibits 10% of cell survival. At this concentration, the molecules were tested in parallel in the absence and presence of doxorubicin. MDR ratios were calculated for the IC50 values in order to establish the degree of potentiation of the cytotoxic activity of doxorubicin induced by the product (MDR ratio) (De Lean et al. (1978) A. J. Physiol. 235, E97-102); (Skehan et al. (1990) J. Natl. Cancer Inst. 82, 1107-1112).

The next data set deals with LoVo/Dx cell line. The data set can be described thus: Potentiation of doxorubicin cytotoxicity (MDR ratio), LoVo/Dx. It counts as cell-based, human. To be noted: compound at 11 μM. As to the method:
as §3, §4

Data set [5] in a line: Cytotoxicity on endothelial cells (BMEC). It counts as cell-based, bovine. As to conditions: bovine, BMEC (bovine medullary endothelial cell) cultures; for IC50: read-out: IC50 (μM), cytotoxicity on BMEC.
Data set [6] concerns BMEC (bovine medullary endothelial cell). The data set can be described thus: Cytotoxicity on endothelial cells (BMEC). It counts as cell-based. As to conditions: BMEC.
Data set [7] has the same test system. The data set can be described thus: Chemotactic assay with the Boyden chamber on BMEC. It counts as cell-based. As to conditions: for % inhibition of migration at IC0/D.S.: BMEC, at IC0, chemotactic stimulus 1% bovine serum in DMEM. Here is the method:
For the antiangiogenic activity the chemotactic assay with the Boyden chamber was performed (Werner F., Goodwin R. H. and Leonard E. J., Journal of Immunological Methods 1980; 33, 239-247), using both bovine aortal endothelial cell (BAEC) cultures and bovine medullary endothelial cell (BMEC) cultures. The assays were performed at IC0 (maximum non-cytotoxic concentration) and the results expressed as % inhibition of migration across a porous filter in response to a chemotactic stimulus (1% bovine serum in DMEM culture medium). This finding was obtained by direct cell count under the optical microscope, and the percentage migration inhibition was calculated according to the formula (T−C/C)×100, where T=mean number of cells migrating in the sample and C=mean number of cells migrating in the control. The control consisted of cells which migrated towards the serum, not treated with the study molecules, and included in every chemotaxis experiment. The data refer to the readings of 5 microscopic fields/well in 4 independent chemotaxis wells per sample.

A word on the melting point: it is the temperature of the solid-liquid transition. Take `CC1(C)OCC(C2c3c([nH]c4ccccc34)C(c3c[nH]c4ccccc34)C3OC(C)(C)OC32)O1` (racemic) [ST1372, 1-(indol-3-yl)-2,3-O-isopropylidene-4-(2,3-O-isopropylidene-ethyl)-tetrahydrocarbazole]: the melting point is 204 to 206 °C (dec.). For the same compound, in data set [1], the pIC50 is 4.68. In [2], the pIC50 is 4.66. In addition, the pIC50 in [3] is 4.68. Besides, in data set [4], the pIC50 is 4.66. Besides, the “increases and blocks in G0/G1 (% of the cell)” value in the data set on MCF-7 cells (MCF-7, 20 μM, relative to control) was 23%. Also, the “increases and blocks in G0/G1 (% of the cell)” value with MCF-7 cells (MCF-7, 40 μM, relative to control) worked out at 32%. In the data set on MCF-7 cells (MCF-7, compound at 20 μM), the “G0/G1 (%)” value was 20 μM = 54.4%, the “G2 + M (%)” value amounted to 20 μM = 11.4% and the “S(%)” value came to 20 μM = 34.2%. Also, in the data set on MCF-7 cells (MCF-7, compound at 40 μM), the “G0/G1 (%)” value is listed as 40 μM = 57.8%, the “G2 + M (%)” value was 40 μM = 5.4%, the “S(%)” value is given as 40 μM = 36.8% and the “Apoptosis 48 h (%)” value stood at 40 μM = 16%. In the data set on MCF-7/Dx line, the “increase of the activity of Doxorubicin (MDR ratio)” value is recorded as 3,5 times. In the data set on LoVo/Dx cell line, the “increase of the activity of Doxorubicin (MDR ratio)” value was 3,5 times.
One may read the IC50 as the concentration needed to halve the response being measured. `c1ccc2c(C3CCCCc4c3[nH]c3ccccc43)c[nH]c2c1` (racemic) [ST1381, 1-(indol-3-yl)-indo [2,3a]-cycloheptan.]: the pIC50 was 4.55 in data set [1]; 4.65 in data set [2]; 4.55 in [3]; 4.60 in [4]; under 4.00 in data set [5] (endothelial cell, read-out: cytotoxicity vs endotelial cell (IC)). In addition, the “increases and blocked in G0/G1 (% of the cell line)” value with MCF-7 cells (MCF-7, 30 μM, relative to control) was 32%. Moreover, in the data set with MCF-7 cells (MCF-7, compound at 30 μM), the “G0/G1 (%)” value was 30 μM = 57.7%. For the same compound, the “G2 + M (%)” value in the data set on MCF-7 cells (MCF-7, compound at 30 μM) is recorded as 30 μM = 10.1%. In the data set with MCF-7 cells (MCF-7, compound at 30 μM), the “S(%)” value is given as 30 μM = 32.2%. For the same compound, the “Apoptosis 48 h (%)” value in the data set on MCF-7 cells (MCF-7, compound at 30 μM) is listed as 30 μM = 3.3%. Also, the “IC0 (μM) (maximum non-cytotoxic concentration)” value in data set [6] was 30 µM. This compound also returned a half-inhibitory concentration (IC50) in data set [6] of over 100 µM. The “% inhibition of migration at IC0/D.S.” value in [7] is −61.7%. Moreover, the “chemotaxis of endothelial cells (in words)” value was “active for the chemotaxys” in [7] and “the better anti-chemiotactic compound” in data set [7] (listed as ST 1381).
For the compound `OCCCCC(c1cc2cc3c(cc2[nH]1)OCO3)c1c[nH]c2cc3c(cc12)OCO3` (racemic) [ST1423, (R,S)-5-hydroxy-1,1-di-(5′,6′-methylendioxy-indol-2-yl,5 ″,6″-methylendioxy-indol-3-yl)-pentane], the melting point was 220 °C (dec.).
For `c1ccc2c(C3CCCCc4[nH]c5ccccc5c43)c[nH]c2c1` (racemic) [ST1621, 5-(indol-3-yl)-indo [2,3a]-cycloheptan.], the pIC50 is 4.65 in data set [1], 4.46 in [2], 4.17 in data set [3] and 4.62 in data set [4]. Besides, the IC50 in [5] is 10 µM. The “IC0 (μM) (maximum non-cytotoxic concentration)” value in [6] was found to be 0.1 µM. In addition, the “% inhibition of migration at IC0/D.S.” value in data set [7] is given as −43 +/− 4%.
Regarding `c1ccc2c(C3CCCc4c3[nH]c3ccccc43)c[nH]c2c1` (racemic) [ST1728, 1-(1H-indol-3-yl)-tetrahydro-1H-carbazole], the melting point was found to be 207 °C. In addition, the pIC50 in [1] is 4.66. Besides, the pIC50 in data set [2] was 4.64.
`c1ccc2c(C3CCCc4[nH]c5ccccc5c43)c[nH]c2c1` (racemic) [ST1729, 4-(1H-indol-3-yl)-tetrahydro-1H-carbazole] yielded a melting point of 182 °C. In data set [1], the pIC50 was 4.46. Moreover, in data set [2], the pIC50 is 4.30. Also, the IC50 in data set [5] was found to be 80 µM. Besides, the “IC0 (μM) (maximum non-cytotoxic concentration)” value in data set [6] was found to be 25 µM. The “% inhibition of migration at IC0/D.S.” value in [7] was −40 +/− 3%.
On to `c1[nH]c2cc3c(cc2c1C1CCCCc2c1[nH]c1cc4c(cc21)OCO4)OCO3` (racemic) [ST1749, 1-(5″, 6″-methylendioxy-indol-3-yl)-5′,6′-methyleridioxy-indo [2,3-a]-cycloeptane], for which the melting point is 184 °C (dec.). Besides, the IC50 in [5] is over 200 µM. Besides, in data set [6], the “IC0 (μM) (maximum non-cytotoxic concentration)” value turned out to be 100 µM. Also, in data set [7], the “% inhibition of migration at IC0/D.S.” value is −40 +/− 3%.
Take `c1[nH]c2cc3c(cc2c1C1CCCc2c1[nH]c1cc4c(cc21)OCO4)OCO3` (racemic) [ST1751, 1-(5′,6′-methylendioxy-1H-indol-3-yl)-6,7-methylendioxy-tetrahydro-1H-carbazole]: the melting point is 200 °C (dec.). Also, in data set [3], the pIC50 was 4.23.
For `c1ccc(COc2ccc3[nH]cc(C4CCCCc5c4[nH]c4ccc(OCc6ccccc6)cc54)c3c2)cc1` (racemic) [ST1765, 1-(5″-benzyloxy-indol-3-yl)-5′-benzyloxy-indo[2,3a]-cycloheptan.], the melting point is 286 °C (dec.). In data set [1], the pIC50 is 4.94. Also, in data set [2], the pIC50 is 4.98. Further, the pIC50 in [3] was 4.61. The pIC50 in data set [4] is 4.77.
Take `c1[nH]c2cc3c(cc2c1C1CCCc2[nH]c4cc5c(cc4c21)OCO5)OCO3` (racemic) [ST1777, 4-(5′,6′-methylendioxy-1H-indol-3-yl)-6,7-methylendioxy-tetrahydro-1H-carbazole]: the pIC50 in [1] is 6.02; in [2] it was 6.19.
On to `c1ccc(COc2ccc3[nH]cc(C4CCCCc5[nH]c6ccc(OCc7ccccc7)cc6c54)c3c2)cc1` (racemic) [ST1778, 5-(5″-benzyloxy-indol-3-yl)-5′-benzyloxy-indo[2,3a]-cycloheptan.], for which the pIC50 was 4.55 in data set [1], 4.26 in data set [2], 4.15 in [3] and 4.19 in data set [4]. The IC50 in data set [5] is 50 µM. Also, in data set [6], the “IC0 (μM) (maximum non-cytotoxic concentration)” value amounted to 25 µM. Moreover, the “% inhibition of migration at IC0/D.S.” value in data set [7] is recorded as −40 +/− 4%.
With `Oc1ccc2[nH]cc(C3CCCCc4c3[nH]c3ccc(O)cc43)c2c1` (racemic) [ST1783, 1-(5″-hydroxy-1H-indol-3-yl)-5′-hydroxy-indo[2,3a]-cycloheptan.], the pIC50 in data set [1] is 4.57; in data set [2], 4.54; in [3] it was 4.41. The IC50 in data set [5] was determined as 60 µM. In [6], the “IC0 (μM) (maximum non-cytotoxic concentration)” value came to 10 µM. The “% inhibition of migration at IC0/D.S.” value in data set [7] was −46%.
For `OCCCCC(c1c[nH]c2cc3c(cc12)OCO3)c1c[nH]c2cc3c(cc12)OCO3` [ST1422, 5-hydroxy-1,1-di-(5,6-methylendioxy-indol-3-yl)-pentane], the melting point was 200 °C (dec.).
Take `OCCCC(c1c[nH]c2cc3c(cc12)OCO3)c1c[nH]c2cc3c(cc12)OCO3` [ST1730, 4-hydroxy-1,1-di-(5′,6′-methylendioxy-indol-3-yl)-butane]: the melting point is 240 °C (dec.).
